Source: PubChem BioAssay AID179 (DTP/NCI, 2004)
pEC50, pIC50: −log10 of the molar value. Activity calls are given as the source filed them.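 Rule for the calls: active = compounds giving half or more protection of infected cells from virus-caused growth loss, again on retest; inactive = the rest.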

System: CEM cells HIV-1 protection, formazan growth assay
Experiment: NCI AIDS Antiviral Assay
Settings: for pIC50: measured here: growth of uninfected CEM cells
Method in brief: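 Human CEM cells, uninfected and HIV-1-infected, exposed to five drug concentrations; growth measured by soluble formazan assay and scored as percent protection from infection, with protecting compounds retested.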

Structure (SMILES)	pEC50	pIC50	outcome
O=C1C(=Cc2c[nH]c3ccccc23)C(=O)c2ccccc21	< 3.70	3.72	–
C#CC1(O)CCC2C3CCc4cc(Oc5nc(F)nc(-c6c7ccccc7c7sc8ccccc8n67)n5)ccc4C3CC[C@@]21C (some centres undefined)	< 3.70	3.94	–
CC1(C)NC(C)(C)/C(=N\O)C(=NO)/C1=N/O	< 3.70	< 3.70	–
COC(=O)C1(Cc2ccc3c(c2)CCC3)Cc2cc3c(cc2C1)CCC3	< 3.70	< 3.70	–
COc1ccc(C(=O)C(c2ccc(OC)cc2)C2(O)C(=O)Nc3ccc([N+](=O)[O-])cc32)cc1 (centres undefined)	< 4.10	< 4.10	–
COc1ccc(C(N)=O)cc1N=NN(C)C	< 2.95	3.30	–
Nc1ncnc2c1ncn2C1CC(CO)C(CO)C1 (centres undefined)	< 4.02	< 4.02	–
CNC(=O)N(CCCCC(NC(C)=O)C(=O)NCc1ccccc1)Cc1ccccc1 (centres undefined)	< 3.23	< 3.23	–
COc1c(C)c(C/C=C(\C)CCCCO[Si](C(C)C)(C(C)C)C(C)C)c(OC)c2ccccc12	< 3.70	4.27	–
CC(NCc1c(O)ccc2ccc(=O)oc12)C(=O)O (centres undefined)	< 3.70	< 3.70	–
CS(=O)(=O)NNS(=O)(=O)c1ccc(Br)cc1	< 3.40	< 3.40	–
COC(=O)c1cc(C(=C2CC2)c2cc(Br)c(OC)c(C(=O)OC)c2)cc(Br)c1OC	< 3.70	4.85	–
CC(C)(C)OC(=O)[C@@H]1CCC(=O)N1C1(c2ccccc2)c2ccccc2-c2ccccc21	< 3.70	3.85	–
CC(C)=NNC(=S)NC12CC3CC(CC(C3)C1)C2	–	–	inactive
CCOc1cnn(-c2ccccc2)c(=O)c1SCc1ccccc1	< 4.11	4.25	–
NC(=O)CCC(NC(=O)C(F)(F)F)C(=O)O (centres undefined)	–	–	inactive
C[Si](C)(C)/C=C/CCNC(C#N)c1ccccc1 (centres undefined)	< 4.69	< 4.69	–
Cc1cc(C)n2nc3c4ccsc4ncc3c2n1	< 4.34	< 4.34	–
CCOC(=O)c1nc2cc(F)c(F)cc2nc1NCc1cc(OC)c(OC)c(OC)c1	< 4.00	< 4.00	–
C=C(Br)CN1CCC2(c3ccccc3)C(O)C([Se]c3ccccc3)CCC12 (centres undefined)	< 4.56	< 4.56	–
O=[N+]([O-])c1ccc(C2CC(c3ccccc3Cl)=Nc3ccccc3S2=O)cc1 (centres undefined)	< 5.31	< 5.31	–
COC(=O)C1(O)CC(=O)CCC1c1ccccc1 (centres undefined)	< 3.45	< 3.45	–
c1ccc(N2N=C(c3ccco3)CC2c2ccco2)cc1 (centres undefined)	< 4.59	< 4.59	–

Structure (SMILES)	pEC50	pIC50	outcome
CCOC(=O)C(Cl)(NC(=O)OCc1ccccc1)C(F)(F)F (centres undefined)	–	–	inactive
O=S(=O)(SC(Cl)(Cl)Cl)c1cccc(S(=O)(=O)c2cccc(S(=O)(=O)SC(Cl)(Cl)Cl)c2)c1	< 3.70	< 3.70	–
CCOc1ccc(N=C(NC(=O)c2ccccc2)SC)cc1	< 4.65	< 4.65	–
O=C(O)CSc1c([N+](=O)[O-])cc(C(F)(F)F)cc1[N+](=O)[O-]	< 3.70	4.36	–
CC(C)CC(NC(=O)C(C)(CI)Cc1ccccc1)C(=O)Nc1ccccc1 (centres undefined)	< 3.70	3.77	–
Cc1nnc(N=Nc2c(O)[nH]c3ccccc23)n1N	< 4.15	4.23	–
CS(=O)(=O)Nc1ccc2c(c1)N(S(C)(=O)=O)CC2COS(C)(=O)=O (centres undefined)	< 3.70	4.39	–
Cc1cc(=O)oc2c1ccc1occc(=O)c12	< 4.00	4.25	–
O=C(O)C(F)(OC(F)(F)C(F)(OC(F)(F)C(F)(F)C(F)(F)F)C(F)(F)F)C(F)(F)F (centres undefined)	< 3.70	< 3.70	–
O=C(NC(=O)c1ccccc1)Nc1ccccc1	< 4.85	< 4.85	–
O=C(N=C1SCCN1C(=O)C(C(F)(F)F)C(F)(F)F)C(C(F)(F)F)C(F)(F)F	< 3.70	< 3.70	–
O=C1CCSc2c(cnc3ccccc23)N1	< 3.70	< 3.70	–
CN(CCO)c1nc(N)cc(=O)[nH]1	< 2.87	< 2.87	–
Cc1cn(C2CC(N=[N+]=[N-])C(COC(=O)CCCCCCCCCCBr)O2)c(=O)[nH]c1=O (centres undefined)	–	3.96	active
NCCCCC(NC(=O)C(Cc1cnc[nH]1)NC(=O)CN)C(=O)O.[Cu+2] (centres undefined)	< 3.70	4.15	–
Cc1cc(=O)oc2cc(OCc3nc4ccccc4c(=O)o3)ccc12	–	–	inactive
c1ccc2c(c1)nc1nc3c(cn12)CCCCC3	–	–	inactive
O=C1C2CC3OC3CC2C(=O)N1CCN1C(=O)C2CC3OC3CC2C1=O (centres undefined)	< 4.98	< 4.98	–
N#Cc1c(NN)nc(NN)c(C#N)c1-c1ccccc1	< 4.01	4.30	–
O=C1NC(=O)C(F)(n2cc(F)c(=O)[nH]c2=O)C(O)N1 (centres undefined)	< 3.70	4.26	–
CCOc1ccc(C2(C)OC(=O)C3CCCCC32)c2ccccc12 (centres undefined)	–	–	inactive
COc1c(Br)cc(Br)c(OC)c1-c1[nH]c(Br)c(Br)c1Br	< 4.78	< 4.78	–
